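Exposure lasted 48 hours, with cells grown in 96-well plates and compounds tested at five concentrations. GI50 is the concentration that inhibits growth by half. TGI denotes the concentration required for complete inhibition of growth.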
Tests used:
Experiment in all cases: DTP human tumour cell line panel, 48 h
HOP-92 NSCLC = system: HOP-92 NSCLC
HCC-2998 colon = system: HCC-2998 colon
ACHN renal = system: ACHN renal
EKVX NSCLC = system: EKVX NSCLC
OVCAR-4 ovarian = system: OVCAR-4 ovarian
SF-295 CNS = system: SF-295 CNS
SNB-19 CNS = system: SNB-19 CNS
SK-MEL-5 melanoma = system: SK-MEL-5 melanoma
A549 NSCLC = system: A549 NSCLC
SK-MEL-2 melanoma = system: SK-MEL-2 melanoma

Compound | TGI (HOP-92 NSCLC) | TGI (HCC-2998 colon) | TGI (ACHN renal) | TGI (EKVX NSCLC) | TGI (OVCAR-4 ovarian) | TGI (SF-295 CNS) | TGI (SNB-19 CNS) | TGI (SK-MEL-5 melanoma) | TGI (A549 NSCLC) | GI50 (SK-MEL-2 melanoma) | TGI (SK-MEL-2 melanoma) | GI50 (HOP-92 NSCLC) | GI50 (HCC-2998 colon) | GI50 (ACHN renal) | GI50 (OVCAR-4 ovarian) | GI50 (SNB-19 CNS) | GI50 (SK-MEL-5 melanoma) | GI50 (A549 NSCLC) | GI50 (SF-295 CNS) | GI50 (EKVX NSCLC)
O=C(CC(=O)Nc1ccccc1O)Nc1ccccc1O | > 100 µM | > 100 µM | 22.4 µM | > 100 µM | > 100 µM | > 100 µM | > 100 µM | 22 µM | 95.1 µM |  |  |  |  |  |  |  |  |  |  | 
COc1ccc(/C=C/C(=O)c2ccc3cc(OC)c(OC)cc3c2)cc1OC | 6.26 µM | 13.9 µM | > 100 µM |  | 36.7 µM |  | 29.8 µM | 6.61 µM | 10.6 µM | 11.5 µM | 31.6 µM | 1.65 µM | 3.92 µM | 3.81 µM | 3.5 µM | 5.29 µM | 2.3 µM | 2.59 µM |  | 
CCOC(=O)C(Cc1ccccc1)NC(=O)OC(C)(C)C (configuration not stated) | > 100 µM | > 100 µM | > 100 µM |  |  | > 100 µM | > 100 µM |  | > 100 µM |  | > 100 µM |  |  |  |  |  |  |  |  | 
COc1ccc2nc(NC(=O)C(=O)C(C(=O)c3ccccc3-c3ccccc3)C3OC(=O)c4ccccc43)sc2c1 (configuration not stated) | 35.2 µM | 29.1 µM | 73.9 µM | 45.9 µM |  | > 100 µM |  | 31.1 µM | 76.4 µM |  | 28 µM |  |  |  |  |  |  |  |  | 
COc1cc(/C=C/c2ccc(OC(C)=O)cc2)cc(OC)c1OC | 80.2 µM |  | 78.6 µM | > 100 µM | > 100 µM | 66.3 µM | > 100 µM | 34.6 µM | 85.2 µM |  |  |  |  |  |  |  |  |  |  | 
O=Cc1ccc(Oc2c3ccccc3nc3occc23)cc1 |  |  |  |  | 52.9 µM | 36.8 µM | > 100 µM |  | 50.5 µM |  |  |  |  |  | 15.8 µM | 28.8 µM |  | 22.4 µM | 14.4 µM | 
N#CCN1CCOCCOCCN(CC#N)CCOCCOCC1 | > 100 µM | > 100 µM | > 100 µM | > 100 µM | > 100 µM | > 100 µM | > 100 µM | > 100 µM | > 100 µM |  |  |  |  |  |  |  |  |  |  | 
Cc1c(C(=O)/C=C/c2ccccc2Cl)[n+](=O)c2ccccc2n1[O-] | 28.7 µM |  | 31.9 µM | 31.1 µM | 25.8 µM | 28 µM | 31 µM | 31.9 µM | 33.3 µM |  | 27.3 µM |  |  |  |  |  |  |  |  | 
Cc1ncc(C(=O)Nc2ccc(CN3CCN(C)CC3)c(C(F)(F)F)c2)cc1C#Cc1cnc(N)c2ncccc12 | 1.66 µM |  | 1.65 µM | 3.62 µM |  | 10.6 µM | 5.33 µM | 4.44 µM | 2.69 µM | 0.0783 µM | 0.747 µM | 0.129 µM |  | 0.063 µM |  | 2.16 µM | 1.02 µM | 0.391 µM | 1.26 µM | 1.27 µM
Nc1c(C(=O)c2cccc(CCC3(O)CCCC3)c2)cnn1-c1ccc(F)cc1 | 20.2 µM | > 25 µM | > 25 µM |  | > 25 µM | > 25 µM | > 25 µM | 13.3 µM | > 25 µM | > 25 µM | > 25 µM | 2.73 µM | > 25 µM | > 21 µM | 8.71 µM | 15.3 µM | 4.78 µM | 12.6 µM | 9.4 µM | 
O=C(/C=C/c1ccccc1O)c1cccnc1 |  | > 100 µM | > 100 µM | > 100 µM | > 100 µM | > 100 µM | > 100 µM | > 100 µM | > 100 µM |  | > 100 µM |  |  |  |  |  |  |  |  | 

Reference: PubChem BioAssay (NCI)
